According to patent US7332328B2, “Microcolumn-platform based array for high-throughput analysis” (Corning Incorporated, priority 2001, dated 2008):

Biological target: adrenergic β1 receptor (Homo sapiens, UniProt P08588)
Experiment: Ligand binding assay on adrenergic β1 receptor arrays printed on microcolumns
Details: 5 nM labeled ligand, microcolumn #1, about one hour incubation
Description: These glass microcolumns were coated with a thin gold layer and functionalized with GAPS. […] To assay ligand binding, the microcolumns were inserted into the wells of an 1×8-Stripwell plate (Corning®) containing a fluorescently-labeled β1 receptor ligand (bodipy-TMR CGP12177) (5 nM) in a ligand binding buffer (50 mM Tris-HCl, 2 mM EDTA, 1 mM MgCl2, pH 7.4, 0.1% BSA). […] Following incubation of about one hour, the microcolumns were removed, washed, and scanned to assess ligand binding on the array.

Sequence of adrenergic β1 receptor (P08588 whole entry): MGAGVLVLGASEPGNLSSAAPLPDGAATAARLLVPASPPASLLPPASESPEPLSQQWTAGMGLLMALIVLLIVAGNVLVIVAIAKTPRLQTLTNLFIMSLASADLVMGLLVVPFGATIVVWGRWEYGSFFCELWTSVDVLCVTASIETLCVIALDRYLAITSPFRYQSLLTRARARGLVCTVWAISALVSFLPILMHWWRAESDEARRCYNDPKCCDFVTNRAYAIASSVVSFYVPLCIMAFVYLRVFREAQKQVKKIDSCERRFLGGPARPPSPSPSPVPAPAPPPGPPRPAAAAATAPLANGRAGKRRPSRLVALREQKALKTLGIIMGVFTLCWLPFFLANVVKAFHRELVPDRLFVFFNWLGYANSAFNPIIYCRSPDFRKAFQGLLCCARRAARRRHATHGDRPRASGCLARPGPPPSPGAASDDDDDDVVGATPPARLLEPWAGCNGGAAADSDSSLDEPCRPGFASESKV

bodipy-TMR CGP12177
Binding of fluorescently-labeled ligand to the β1 receptor array (fluorescent signal): high fluorescent signal
